According to ChEMBL document CHEMBL1140510, “New 1,2,3,4-tetrahydropyrrolo[3,4-b]indole derivatives as selective CB2 receptor agonists” (Bioorg Med Chem Lett, 2007):

Legend:
Homo sapiens = species: Homo sapiens; test: Selectivity for human CB2 receptor over human CB1 receptor
Cannabinoid receptor 2 [1] = biological target: T1, Cannabinoid receptor 2 (Homo sapiens, UniProt P34972); test: Binding affinity to human CB2 receptor
Cannabinoid receptor 1 = Cannabinoid receptor 1 (Homo sapiens, UniProt P21554); test: Binding affinity to human CB1 receptor
Sequence of Cannabinoid receptor 1 (P21554 whole entry): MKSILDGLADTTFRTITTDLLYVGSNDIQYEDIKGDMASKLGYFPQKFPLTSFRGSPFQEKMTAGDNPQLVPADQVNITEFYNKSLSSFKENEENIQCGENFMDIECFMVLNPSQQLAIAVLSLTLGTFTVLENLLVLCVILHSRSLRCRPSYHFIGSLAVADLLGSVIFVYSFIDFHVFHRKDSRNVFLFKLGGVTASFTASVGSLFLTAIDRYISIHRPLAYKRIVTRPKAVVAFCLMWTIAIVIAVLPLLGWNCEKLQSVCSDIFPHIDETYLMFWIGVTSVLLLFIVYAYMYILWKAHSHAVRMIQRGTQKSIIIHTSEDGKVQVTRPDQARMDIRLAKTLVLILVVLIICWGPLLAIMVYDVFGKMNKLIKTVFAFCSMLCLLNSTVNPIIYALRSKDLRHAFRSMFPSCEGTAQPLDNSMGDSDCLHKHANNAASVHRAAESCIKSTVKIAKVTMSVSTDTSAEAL

Cannabinoid receptor 2 [2] = biological target: T1, Cannabinoid receptor 2; test: Agonist activity at human CB2 receptor by GTPgamma[35S] assay; format: functional
Cannabinoid receptor 2 [3] = biological target: T1, Cannabinoid receptor 2; test: Agonist activity at human CB2 receptor by GTPgamma[35S] assay relative to WIN-55212-2; format: functional

T1 sequence (P34972 whole entry): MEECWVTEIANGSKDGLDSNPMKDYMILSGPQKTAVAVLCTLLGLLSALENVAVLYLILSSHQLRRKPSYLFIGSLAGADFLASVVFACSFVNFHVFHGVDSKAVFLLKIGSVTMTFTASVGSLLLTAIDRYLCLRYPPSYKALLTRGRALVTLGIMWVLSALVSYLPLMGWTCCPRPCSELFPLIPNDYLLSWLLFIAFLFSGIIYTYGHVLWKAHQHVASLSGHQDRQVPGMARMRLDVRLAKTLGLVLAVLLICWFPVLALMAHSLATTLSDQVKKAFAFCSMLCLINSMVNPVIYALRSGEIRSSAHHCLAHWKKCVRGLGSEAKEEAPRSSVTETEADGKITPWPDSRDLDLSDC

SMILES | Ratio Ki (Homo sapiens) | Ki (Cannabinoid receptor 2 [1]) [µM] | Ki (Cannabinoid receptor 1) [µM] | EC50 (Cannabinoid receptor 2 [2]) [µM] | Emax (Cannabinoid receptor 2 [3]) [%]
CC1CCN(C(=O)c2ccc3c(c2)c2c(n3Cc3ccccc3)CN(C3CCCC3)C2)CC1 | 6.2 | 0.106 | 0.658 |  | 
CCS(=O)(=O)n1c2c(c3cc(C(=O)N4CCC(C)CC4)ccc31)CN(C1CCCC1)C2 | 9.4 | 0.007 | 0.0663 | 0.0008 | 110
CC1CCN(C(=O)c2ccc3c(c2)c2c(n3S(C)(=O)=O)CN(C3CCCC3)C2)CC1 | 35.3 | 0.0079 | 0.279 | 0.0006 | 105
CC1CCN(C(=O)c2ccc3c(c2)c2c(n3S(=O)(=O)c3ccccc3)CN(C3CCCC3)C2)CC1 | 14.5 | 0.0179 | 0.259 | 0.0156 | -62
CCCN1Cc2c(n(S(=O)(=O)CC)c3ccc(C(=O)N4CCC(C)CC4)cc23)C1 | 54.4 | 0.0111 | 0.604 | 0.0008 | 104
CCCCCc1cc(O)c2c(c1)CC(C)(C)[C@@H]1CCC(C)=C[C@@H]21 | 0.14 | 0.14 | 0.0201 | 0.0135 | 64
CCS(=O)(=O)n1c2c(c3cc(C(=O)N4CCOCC4)ccc31)CN(C1CCCC1)C2 | > 25 | 0.308 | > 8 |  | 
CCS(=O)(=O)n1c2c(c3cc(C(=O)N4CCC(C)CC4)ccc31)CN(C(C)C)C2 | 47 | 0.0089 | 0.418 | 0.0009 | 101
CCS(=O)(=O)n1c2c(c3cc(C(=O)N4CCC(C)CC4)ccc31)CN(C1CCCCO1)C2 (stereo not drawn) | 351 | 0.0176 | 6.18 | 0.0017 | 107
CCS(=O)(=O)n1c2c(c3cc(C(=O)N4CCC(C)CC4)ccc31)CN(C1CCOCC1)C2 | 14 | 0.216 | 3.02 |  | 
CC(=O)n1c2c(c3cc(C(=O)N4CCC(C)CC4)ccc31)CN(C1CCCC1)C2 | 26.5 | 0.0881 | 2.33 |  | 
CCS(=O)(=O)n1c2c(c3cc(C(=O)N(C)CCC(C)C)ccc31)CN(C1CCCC1)C2 | 38.7 | 0.0381 | 1.47 |  | 
CCS(=O)(=O)n1c2c(c3cc(C(=O)N4CCC(C)CC4)ccc31)CN(C1CCOC1)C2 (stereo not drawn) | 35 | 0.0278 | 0.973 |  | 
CCS(=O)(=O)n1c2c(c3cc(C(=O)N4CCCCC4)ccc31)CN(C1CCCC1)C2 | 46.7 | 0.0175 | 0.818 | 0.0017 | 107
CC1CCN(C(=O)c2ccc3c(c2)c2c(n3S(=O)(=O)C3CC3)CN(C3CCCC3)C2)CC1 | 14.6 | 0.0094 | 0.137 | 0.0015 | 101
CC1CCN(C(=O)c2ccc3[nH]c4c(c3c2)CN(C2CCCC2)C4)CC1 |  | 4.72 | > 8 |  | 
CCS(=O)(=O)n1c2c(c3cc(C(=O)N4CCC(C)CC4)ccc31)CN(CCC1CCCCC1)C2 | 1.4 | 1.98 | 2.74 |  | 
CCS(=O)(=O)n1c2c(c3cc(C(=O)N(C)C(C)C)ccc31)CN(C1CCCC1)C2 | 67.5 | 0.107 | 7.22 |  | 
CC1CCN(C(=O)c2ccc3c(c2)c2c(n3S(=O)(=O)C(C)C)CN(C3CCCC3)C2)CC1 | 35.7 | 0.0042 | 0.15 | 0.0005 | 105
CCS(=O)(=O)n1c2c(c3cc(C(=O)N4CCC(C)CC4)ccc31)CN(Cc1ccccc1)C2 | 34.4 | 0.037 | 1.27 |  | 
CCCS(=O)(=O)n1c2c(c3cc(C(=O)N4CCC(C)CC4)ccc31)CN(C1CCCC1)C2 | 8.7 | 0.0223 | 0.195 | 0.0067 | 90
CCCCN1Cc2c(n(S(=O)(=O)CC)c3ccc(C(=O)N4CCC(C)CC4)cc23)C1 | 20.3 | 0.0168 | 0.341 | 0.0027 | 105
CCS(=O)(=O)n1c2c(c3cc(C(=O)N4CCC(C)CC4)ccc31)CN(CC1CCCCC1)C2 | 0.4 | 0.935 | 0.339 |  | 
CCS(=O)(=O)n1c2c(c3cc(C(=O)N4CCC(OC)CC4)ccc31)CN(C1CCCC1)C2 | 77.2 | 0.0276 | 2.13 |  | 
CCS(=O)(=O)n1c2c(c3cc(C(=O)N4CCC(F)CC4)ccc31)CN(C1CCCC1)C2 | 65.9 | 0.0442 | 2.91 |  | 
CCCCN(C)C(=O)c1ccc2c(c1)c1c(n2S(=O)(=O)CC)CN(C2CCCC2)C1 | 34.9 | 0.0223 | 0.779 | 0.004 | 111
CC1CCN(C(=O)c2ccc3c(c2)c2c(n3C)CN(C3CCCC3)C2)CC1 | 21.4 | 0.0847 | 1.81 |  | 
CCS(=O)(=O)n1c2c(c3cc(C(=O)N4CCC(C)CC4)ccc31)CN(CC1CC1)C2 |  | 0.0063 |  | 0.0005 | 
C=CCN1Cc2c(n(S(=O)(=O)CC)c3ccc(C(=O)N4CCC(C)CC4)cc23)C1 | 41.1 | 0.0064 | 0.263 | 0.0003 | 104
C=CCn1c2c(c3cc(C(=O)N4CCC(C)CC4)ccc31)CN(C1CCCC1)C2 | 29.8 | 0.0233 | 0.695 | 0.005 | 92
